Assay results as given in US9113629B2, “4-amino-6-(4-substituted-phenyl)-picolinates and 6-amino-2-(4-substituted-phenyl)-pyrimidine-4-carboxylates and their use as herbicides” (DOW AGROSCIENCES LLC, priority 2013, dated 2015).
Read-outs that look alike come from different tables or passages of the source.

How the values were obtained:
[1] = test system: Key Broadleaf Weed and Crop Species; assay: Post-emergent Test II herbicidal activity (Table 5); type: in vivo; conditions: post-emergence, 336 h, post-emergent, 14 days after application; for pest or weed control at 70 g/ha: 70 g ai/ha; for pest or weed control at 140 g/ha: 140 g ai/ha
Outline: (§1)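 Test species were raised 7–21 d under greenhouse conditions until reaching the first or second true leaf, sprayed with formulated compound at 187 L/ha, and kept subirrigated to avoid wash-off. Fourteen days later, damage was rated visually on a 0–100% scale against untreated plants.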

[2] = test system: Key Grass and Sedge Weeds as well as Grass Crops; assay: Post-emergent Test II herbicidal activity (Table 6); type: in vivo; conditions: post-emergence, 336 h; for pest or weed control at 70 g/ha: application rate 70 g ai/ha; for pest or weed control at 140 g/ha: application rate 140 g ai/ha
Outline: as §1

[3] = ABUTH: velvetleaf (Abutilon theophrasti), read-out: Visual Growth Reduction (%) 14 Days After Application ABUTH
[4] = AMARE: redroot pigweed (Amaranthus retroflexus), read-out: Visual Growth Reduction (%) 14 Days After Application AMARE
[5] = BRSNN: oilseed-rape, canola (Brassica napus), read-out: Visual Growth Reduction (%) 14 Days After Application BRSNN
[6] = CHEAL: lambsquarters (Chenopodium album), read-out: Visual Growth Reduction (%) 14 Days After Application CHEAL
[7] = EPHHL: wild poinsettia (Euphorbia heterophylla), read-out: Visual Growth Reduction (%) 14 Days After Application EPHHL
[8] = HELAN: sunflower (Helianthus annuus), read-out: Visual Growth Reduction (%) 14 Days After Application HELAN
[9] = VIOTR: wild pansy (Viola tricolor), read-out: Visual Growth Reduction (%) 14 Days After Application VIOTR
[10] = Triticum aestivum, TRZSS (wheat), read-out: Visual Growth Reduction (%) 14 Days After Application, TRZSS
[11] = CYPES: yellow nutsedge (Cyperus esculentus), read-out: Visual Growth Reduction (%) 14 Days After Application, CYPES
[12] = DIGSA: crabgrass (Digitaria sanguinalis), read-out: Visual Growth Reduction (%) 14 Days After Application, DIGSA
[13] = ECHCG: barnyardgrass (Echinochloa crus-galli), read-out: Visual Growth Reduction (%) 14 Days After Application, ECHCG
[14] = ORYSA: rice (Oryza sativa), read-out: Visual Growth Reduction (%) 14 Days After Application, ORYSA
[15] = SETFA: giant foxtail (Setaria faberi), read-out: Visual Growth Reduction (%) 14 Days After Application, SETFA
[16] = SORVU: grain sorghum (Sorghum vulgare), read-out: Visual Growth Reduction (%) 14 Days After Application, SORVU
[17] = ZEAMX: maize, corn (Zea mays), read-out: Visual Growth Reduction (%) 14 Days After Application, ZEAMX

melting point | Structure (SMILES) | pest or weed control at 70 g/ha [1, 3] | pest or weed control at 140 g/ha [1, 3] | pest or weed control at 70 g/ha [1, 4] | pest or weed control at 140 g/ha [1, 4] | pest or weed control at 70 g/ha [1, 5] | pest or weed control at 140 g/ha [1, 5] | pest or weed control at 70 g/ha [1, 6] | pest or weed control at 140 g/ha [1, 6] | pest or weed control at 70 g/ha [1, 7] | pest or weed control at 140 g/ha [1, 7] | pest or weed control at 70 g/ha [1, 8] | pest or weed control at 140 g/ha [1, 8] | pest or weed control at 70 g/ha [1, 9] | pest or weed control at 140 g/ha [1, 9] | pest or weed control at 70 g/ha [2, 10] | pest or weed control at 140 g/ha [2, 10] | pest or weed control at 70 g/ha [2, 11] | pest or weed control at 140 g/ha [2, 11] | pest or weed control at 70 g/ha [2, 12] | also measured
185.5 to 187 °C | Cc1c(-c2ccc(Br)cc2)nc(C(=O)O)c(Cl)c1N [Compound 78, 4-Amino-6-(4-bromophenyl)-3-chloro-5-methylpicolinic acid] | 95 to 100% | 95 to 100% | 85 to 94% | 95 to 100% | 85 to 94% | 95 to 100% | 85 to 94% | 85 to 94% | 0 to 29% | 0 to 29% | 95 to 100% | 95 to 100% | 0 to 29% | 0 to 29% | 45 to 59% | 45 to 59% | 0 to 29% | 95 to 100% | 0 to 29% | pest or weed control at 140 g/ha [2, 12]: 0 to 29%; pest or weed control at 70 g/ha [2, 13]: 0 to 29%; pest or weed control at 140 g/ha [2, 13]: 0 to 29%; pest or weed control at 70 g/ha [2, 14]: 0 to 29%; pest or weed control at 140 g/ha [2, 14]: 0 to 29%; pest or weed control at 70 g/ha [2, 15]: 45 to 59%; pest or weed control at 140 g/ha [2, 15]: 60 to 74%; pest or weed control at 70 g/ha [2, 16]: 0 to 29%; pest or weed control at 140 g/ha [2, 16]: 0 to 29%; pest or weed control at 70 g/ha [2, 17]: 0 to 29%; pest or weed control at 140 g/ha [2, 17]: 30 to 44%
177 to 180 °C | COC(=O)c1nc(-c2ccc(C#N)c(F)c2)c(C)c(N)c1Cl [Compound 155, Methyl 4-amino-3-chloro-6-(4-cyano-3-fluorophenyl)-5-methylpicolinate] | 0 to 29% | 0 to 29% | 0 to 29% | 0 to 29% | 45 to 59% | 60 to 74% | 85 to 94% | 95 to 100% | 0 to 29% | 0 to 29% | 85 to 94% | 85 to 94% | 0 to 29% | 0 to 29% | 0 to 29% | 0 to 29% | 0 to 29% | 0 to 29% | 0 to 29% | pest or weed control at 140 g/ha [2, 12]: 0 to 29%; pest or weed control at 70 g/ha [2, 13]: 0 to 29%; pest or weed control at 140 g/ha [2, 13]: 0 to 29%; pest or weed control at 70 g/ha [2, 14]: 0 to 29%; pest or weed control at 140 g/ha [2, 14]: 0 to 29%; pest or weed control at 70 g/ha [2, 15]: 0 to 29%; pest or weed control at 140 g/ha [2, 15]: 0 to 29%; pest or weed control at 70 g/ha [2, 16]: 0 to 29%; pest or weed control at 140 g/ha [2, 16]: 0 to 29%; pest or weed control at 70 g/ha [2, 17]: 0 to 29%; pest or weed control at 140 g/ha [2, 17]: 0 to 29%
77 to 78 °C | C=Cc1c(C(=O)OC)nc(-c2ccc(C(F)(F)F)c(F)c2)c(F)c1N [Compound 12] | 75 to 84% | 85 to 94% | 0 to 29% | 45 to 59% | 0 to 29% | 0 to 29% | 0 to 29% | 0 to 29% | 45 to 59% | 95 to 100% | 0 to 29% | 0 to 29% | 0 to 29% | 0 to 29% | 0 to 29% | 0 to 29% | 30 to 44% | 45 to 59% | 0 to 29% | pest or weed control at 140 g/ha [2, 12]: 0 to 29%; pest or weed control at 70 g/ha [2, 13]: 0 to 29%; pest or weed control at 140 g/ha [2, 13]: 0 to 29%; pest or weed control at 70 g/ha [2, 14]: 0 to 29%; pest or weed control at 140 g/ha [2, 14]: 0 to 29%; pest or weed control at 70 g/ha [2, 15]: 0 to 29%; pest or weed control at 140 g/ha [2, 15]: 0 to 29%; pest or weed control at 70 g/ha [2, 16]: 0 to 29%; pest or weed control at 140 g/ha [2, 16]: 0 to 29%; pest or weed control at 70 g/ha [2, 17]: 0 to 29%; pest or weed control at 140 g/ha [2, 17]: 0 to 29%
